# Experimental data: patent US20260224582A1, “Heterobicyclic amides as inhibitors of CD38” (Cerevance, Inc., priority 2022, published 2026)
# Assay: Tissue binding assay (equilibrium dialysis), plasma
# Format: in vitro ADME
# Settings: mouse plasma, dialysis 4 hours at 37° C., pH 7.4
# Description: [Worded in the source for another target; this target is reported under the same test.] Buffer preparation. A basic solution was prepared by dissolving 14.2 g/L Na2HPO4 and 8.77 g/L NaCl in deionized H2O. An acidic solution was prepared by dissolving 15.6 g/L NaH2PO4·2H2O and 8.77 g/L NaCl in deionized H2O. Using the acidic solution, the basic solution was then titrated to pH 7.4±0.1 and stored at 4° C. for up to 1 month. The stop solution was 100% CH3CN containing 200 ng/ml tolbutamide, 200 ng/ml labetalol and 50 ng/ml metformin.
# Test method. Dialysis membrane strips were soaked in ultra-pure water at room temperature for ~1 hour. Each membrane strip containing 2 membranes was separated and soaked in 20:80 EtOH/H2O (v/v) for ~20 min, after which they were ready for use or were stored in the solution at 2-8° C. for up to 1 month. Prior to the experiment, the membrane was rinsed and soaked for 20 min in ultra-pure water. On the day of experiment, brain homogenate was thawed in a water bath at room temperature and incubated at 37° C. for 10 min before use. Test and control compounds were dissolved in DMSO to achieve 10 mM stock solutions. DMSO working solutions were prepared at 400 μM by diluting 10 μL of stock solution. To prepare the time zero (t=0) samples to be used for recovery determination, 50 μL aliquots of loading matrix were transferred in triplicate to the sample collection plate. The samples were immediately matched with opposite blank buffer to obtain a final volume of 100 μL of 1:1 matrix/dialysis buffer (v/v) in each well. 500 μL of stop solution were added to these t=0 samples. They were then stored at 2-8° C. pending further processes along with other post-dialysis samples. To load the dialysis device, an aliquot of 150 μL of the loading matrix was transferred to the donor side of each dialysis well in triplicate, and 150 μL of the dialysis buffer was loaded to the receiver side of the well. The dialysis plate was placed in a humidified incubator at 37° C. with 5% CO2 on a shaking platform that rotated slowly (about 100 rpm) for 4 hours. At the end of the dialysis, aliquots of 50 μL of samples were taken from both the buffer side and the matrix side of the dialysis device. These samples were transferred into new 96-well plates. Each sample was mixed with an equal volume of opposite blank matrix (buffer or matrix) to reach a final volume of 100 μL of 1:1 matrix/dialysis buffer (v/v) in each well. All samples were further processed by adding 500 μL of stop solution containing internal standards. The mixture was vortexed and centrifuged at 4000 rpm for about 20 min. An aliquot of 100 μL of supernatant of all the samples was then removed for LC-MS/MS analysis. The single blank samples were prepared by transferring 50 μL of blank matrix to a 96-well plate and adding 50 μL of blank PBS buffer to each well. Then the matrix-matched samples were further processed by adding 500 μL of stop solution containing internal standards, following the same sample processing method as the dialysis samples.
# Data analysis. The % undiluted unbound, % undiluted bound and % recovery were calculated using the following equations: […]
# where F is the analyte concentration or peak area ratio of analyte/internal standard on the buffer (receiver) side of the membrane; T is the analyte concentration or peak area ratio of analyte/internal standard on the matrix (donor) side of the membrane; To is the analyte concentration or the peak area ratio of analyte/internal standard in the loading matrix sample at time zero; and D is the dilution factor determined as 4 in this assay.
row,SMILES,fraction unbound at 4 h
1,"O=C(N[C@H]1CC[C@H](NCC(F)(F)F)CC1)c1nc(-n2ccnc2)nc2ncccc12 [Example 4, 2-(1H-imidazol-1-yl)-N-((1r,4r)-4-((2,2,2-trifluoroethyl)amino)cyclohexyl)pyrido[2,3-d]pyrimidine-4-carboxamide]",0.4
2,"O=C(N[C@H]1CC[C@H](N2CCC(F)(F)C2)CC1)c1nc(-n2ccnc2)nn2cccc12 [Example 12, N-((1r,4r)-4-(3,3-difluoropyrrolidin-1-yl)cyclohexyl)-2-(1H-imidazol-1-yl)pyrrolo[2,1-f][1,2,4]triazine-4-carboxamide]",0.062
3,"O=C(N[C@H]1CC[C@H](N2CC[C@H](F)C2)CC1)c1nc(-n2ccnc2)nn2cccc12 [Example 13, N-((1S,4r)-4-((S)-3-fluoropyrrolidin-1-yl)cyclohexyl)-2-(1H-imidazol-1-yl)pyrrolo[2,1-f][1,2,4]triazine-4-carboxamide]",0.22
4,"O=C(N[C@H]1CC[C@H](N2CC[C@@H](F)C2)CC1)c1nc(-n2ccnc2)nn2cccc12 [Example 14, N-((1R,4r)-4-((R)-3-fluoropyrrolidin-1-yl)cyclohexyl)-2-(1H-imidazol-1-yl)pyrrolo[2,1-f][1,2,4]triazine-4-carboxamide]",0.24
5,"O=C(N[C@H]1CC[C@H](NCC(F)(F)F)CC1)c1cn2ccnc2c(-n2ccnc2)n1 [Example 19, 8-(1H-imidazol-1-yl)-N-((1r,4r)-4-((2,2,2-trifluoroethyl)amino)cyclohexyl) imidazo[1,2-a]pyrazine-6-carboxamide]",0.19
6,"O=C(N[C@H]1CC[C@H](NCC(F)(F)F)CC1)c1cn2ncnc2c(-n2ccnc2)n1 [Example 20, 8-(1H-imidazol-1-yl)-N-((1r,4r)-4-((2,2,2-trifluoroethyl)amino)cyclohexyl)-[1,2,4]triazolo[1,5-a]pyrazine-6-carboxamide]",0.14

# More lines, now with the values ahead:
row,fraction unbound at 4 h,SMILES
1,0.3,"O=C(N[C@H]1CC[C@H](NCC(F)(F)F)CC1)c1cn2nccc2c(-n2ccnc2)n1 [Example 21, 4-(1H-imidazol-1-yl)-N-((1r,4r)-4-((2,2,2-trifluoroethyl)amino)cyclohexyl)pyrazolo[1,5-a]pyrazine-6-carboxamide]"
2,0.044,"O=C(N[C@H]1CC[C@H](NCC(F)(F)F)CC1)c1nc(-n2ccnc2)nn2cccc12 [Example 29, 2-(1H-imidazol-1-yl)-N-((1r,4r)-4-((2,2,2-trifluoroethyl)amino)cyclohexyl)pyrrolo[2,1-f][1,2,4]triazine-4-carboxamide]"
3,0.2,"O=C(N[C@H]1CC[C@H](N2CCC(F)(F)C2)CC1)c1cn2ccnc2c(-n2ccnc2)n1 [Example 41, N-((1r,4r)-4-(3,3-difluoropyrrolidin-1-yl)cyclohexyl)-8-(1H-imidazol-1-yl) imidazo[1,2-a]pyrazine-6-carboxamide]"
4,0.2,"O=C(N[C@H]1CC[C@H](N2CC(F)(F)C2)CC1)c1cn2ncnc2c(-n2ccnc2)n1 [Example 45, N-((1r,4r)-4-(3,3-difluoroazetidin-1-yl)cyclohexyl)-8-(1H-imidazol-1-yl)-[1,2,4]triazolo[1,5-a]pyrazine-6-carboxamide]"
5,0.24,"O=C(N[C@H]1CC[C@H](N2CCC(F)(F)C2)CC1)c1cn2ncnc2c(-n2ccnc2)n1 [Example 48, N-((1r,4r)-4-(3,3-difluoropyrrolidin-1-yl)cyclohexyl)-8-(1H-imidazol-1-yl)-[1,2,4]triazolo[1,5-a]pyrazine-6-carboxamide]"
